# Measurements from patent US20240368163A1, “COMPOUNDS AND METHODS FOR MODULATING SPLICING” (REMIX THERAPEUTICS INC., priority 2021, published 2024).
# Like-named read-outs stand apart in the source and are kept apart here.
# What was measured:
# Assay type in all cases: cell-based, human
# HTT [1] = experiment: Splicing RT-qPCR assay, HTT mRNA canonical junction (CJ) and alternative junction (AJ); conditions: Homo sapiens; for AC50: increase in AJ mRNA
# Procedure: (§1) Compounds described herein were used to modulate RNA transcript abundance in cells. The expression of a target mRNA was measured by detecting the formation of an exon-exon junction in the canonical transcript (CJ). A compound mediated exon-inclusion event was detected by observing an increase in formation of a new junction with an alternative exon (AJ). Real-time qPCR assays were used to detect these splicing switches and interrogate the potency of various compounds towards different target genes. A high-throughput real time quantitative PCR (RT-qPCR) assay was developed to measure these two isoforms of the mRNA (CJ and AJ) for exemplary genes, such as HTT, SMN2, and MYB, together with a control housekeeping gene, GAPDH or GUSB or PPIA, used for normalization. Briefly, the A673 or K562 cell line was treated with various compounds described herein (e.g., compounds of Formula (I)). After treatment, the levels of the HTT, MYB, or SMN2 mRNA targets were determined from each sample of cell lysate by cDNA synthesis followed by qPCR.
# (§2) The A673 cell line was cultured in DMEM with 10% FBS. Cells were diluted with full growth media and plated in a 96-well plate (15,000 cells in 100 ul media per well). The plate was incubated at 37° C. with 5% CO2 for 24 hours to allow cells to adhere. An 11-point 3-fold serial dilution of the compounds was made in DMSO then diluted in media in an intermediate plate. Compounds were transferred from the intermediate plate to the cell plate with the top dose at a final concentration of 10 uM in the well. Final DMSO concentration was kept at or below 0.25%. The cell plate was returned to the incubator at 37° C. with 5% CO2 for an additional 24 hours.
# (§3) The K562 cell line was cultured in IMDM with 10% FBS. For K562, cells were diluted with full growth media and plated in either a 96-well plate (50,000 cells in 50 uL media per well) or a 384-well plate (8,000-40,000 cells in 45 uL media per well). An 11-point 3-fold serial dilution of the compounds were made in DMSO then diluted in media in an intermediate plate. Compound was transferred from the intermediate plate to the cell plate with the top dose at a final concentration of 10 uM in the well. Final DMSO concentration was kept at or below 0.25%. Final volume was 100 uL for 96-well plate and 50 uL for 384-well plate. The cell plate was then placed in an incubator at 37° C. with 5% CO2 for 24 hours.
# (§4) The cells were then gently washed with 50 uL-100 uL cold PBS before proceeding to addition of lysis buffer. 30 uL-50 μL of room temperature lysis buffer with DNAse I (and optionally RNAsin) was added to each well. Cells were shaken/mixed thoroughly at room temperature for 5-10 minutes for lysis to take place and then 3 uL-5 μL of room temperature stop solution was added and wells were shaken/mixed again. After 2-5 minutes, the cell lysate plate was transferred to ice for RT-qPCR reaction setup. The lysates could also be frozen at −80° C. for later use.
# (§5) In some cases, a direct lysis buffer was used. An appropriate volume of 3× lysis buffer (10 mM Tris, 150 mM NaCl, 1.5%-2.5% Igepal and 0.1-1 U/uL RNAsin, pH 7.4) was directly added to either K562 or A673 cells in media and mixed by pipetting 3 times. The plates were then incubated at room temperature with shaking/rocking for 20-50 minutes to allow for lysis to take place. After this time, the cell lysate plate was transferred to ice to set up for the RT-qPCR reactions. The lysates could also be frozen at −80° C. for later use.
# (§6) To set up 10 uL RT-qPCR reactions, cell lysates were transferred to 384-well qPCR plates containing the master mix according to the table below. The plates were sealed, gently vortexed, and spun down before the run. The volumes were adjusted accordingly in some instances where the reaction was carried in 20 μL. The table below summarizes the components of the RT-qPCR reactions:
# (§7) The RT-qPCR reaction was performed using a QuantStudio (ThermoFisher) under the following fast cycling conditions. […]
# MYB [2] = experiment: Splicing RT-qPCR assay, MYB mRNA canonical junction (CJ) and alternative junction (AJ); conditions: Homo sapiens; for AC50: increase in AJ mRNA
# Procedure: as §1, §2, §3, §4, §5, §6, §7
# SMN2 = experiment: Splicing RT-qPCR panel, SMN2 canonical junction (CJ) mRNA; conditions: Homo sapiens, read-out: SMN2 IC50 (decrease in CJ mRNA levels)
# Procedure: as §1, §2, §3, §4, §5, §6, §7
# Target C [3] = experiment: Splicing RT-qPCR panel, Target C canonical junction (CJ) mRNA; conditions: Homo sapiens, read-out: Target C IC50 (decrease in CJ mRNA levels)
# Procedure: as §1, §2, §3, §4, §5, §6, §7
# MYB [4] = experiment: HiBiT protein abundance assay, MYB; conditions: Homo sapiens, K562, 24 h, Table 13B, modified K562 cells
# Procedure: (§8) Compounds described herein were used to screen for effects on quantitative protein abundance using a HiBit assay system (Promega). Quantitative protein abundance was determined by measuring the protein levels of HiBit-tagged protein targets expressed in cell culture via luminescence using the Nano-Glo HiBiT Lytic Detection System, which uses a split complementation assay format to reconstitute NanoBiT enzyme to generate a luminescent signal. A protein abundance assay was developed such that endogenous protein targets could be modified with the HiBiT peptide tag and their abundance could be assessed after compound treatment. Briefly, K562 cell lines containing a HiBiT-modification were treated with various compounds described herein (e.g., compounds of Formulas (I), (II), or (III)). After treatment for 24 hours, the protein abundance of a specific target was determined by measuring luminescence.
# (§9) Cells were maintained in IMIDM with 10% FBS. Before the assay, cells were diluted with […] growth media (IMIDM+[…] media) and were seeded in a 384-well plate at a density of 10000 cells/well (for each cell line listed in Table 12). Each compound was prepared as a 10-point 3-fold serial dilution in DMSO with the top dose at a final concentration of 10 μM in the well. Unmodified K562 cells were added at the previously specified density with DMSO to serve as an assay baseline and positive control (PC) and DMSO only with the respective modified cell lines was added to the negative control (NC) columns. Final DMSO concentration was kept at or below 0.25%. Treated cell plates were placed in an incubator at 37° C. with 5% CO2 for 24 hours. After 24 hours, 25 μL of Complete HiBit Lytic reagent was added to each well at room temperature (e.g. one plate requiring 10 mL Lytic Buffer, 100 μL LgBiT Protein, 200 μL Lytic Substrate), shaken for 5 minutes at 600 RPM, then left to sit for 10 minutes for signal to stabilize before reading on a Spark Cyto plate reader (Tecan) with a 500 ms measurement time.
# (§10) To determine compound effects on protein abundance of each target in Table 12, the percent response for each respective cell line was calculated at each compound concentration as follows:
# (§11) For the normalized response at each concentration, a four-parameter logistical regression was fit to the data and the response was interpolated at the 50% value to determine a concentration for protein abundance at 50% (IC50) the untreated control.
# HTT [5] = experiment: HiBiT protein abundance assay, HTT; conditions: Homo sapiens, K562, 24 h, Table 13B, modified K562 cells
# Procedure: as §8, §9, §10, §11
# Target C [6] = experiment: HiBiT protein abundance assay, Target C; conditions: Homo sapiens, K562, 24 h, Table 13B, modified K562 cells
# Procedure: • Promega Nano-Glo HiBiT Lytic Detection System (cat #N3030) • Coming 384-well TC-treated microplates (cat #3570) • Synthego Engineered Cells Knock-In Clones
# as §9, §10, §11
# [7] = 24 h, A673 or K562 cells, 24 hours treatment, RT-qPCR
# [8] = RT-qPCR panel, canonical junction mRNA, compound concentration having 50% response in CJ decrease, read-out: HTT IC50 (decrease in CJ mRNA levels)
# [9] = 24 h, decrease in CJ mRNA, A673 or K562 cells, 24 hours treatment, RT-qPCR, read-out: MYB CJ IC50
# [10] = RT-qPCR panel, canonical junction mRNA, compound concentration having 50% response in CJ decrease, read-out: MYB IC50 (decrease in CJ mRNA levels)
# [11] = RT-qPCR panel, canonical junction mRNA, compound concentration having 50% response in CJ decrease
# [12] = gene panel, CJ qPCR, protocol of Example 142, read-out: MYB IC50 (decrease in CJ mRNA levels)
# [13] = gene panel, CJ qPCR, protocol of Example 142
smiles,measurement,setting,value
CN(c1ccc(-c2ccc(-n3cccn3)c3cn[nH]c23)nn1)C1CC(C)(C)NC(C)(C)C1 [Compound 150],IC50,"HTT [1]; 24 h, decrease in CJ mRNA, A673 or K562 cells, 24 hours treatment, RT-qPCR, read-out: HTT CJ IC50",100 to 1000 nM
same,AC50,HTT [1]; [7],1000 to 10000 nM
same,IC50,HTT [1]; [8],100 to 1000 nM
same,IC50,MYB [2]; [9],100 to 1000 nM
same,AC50,MYB [2]; [7],100 to 1000 nM
same,IC50,MYB [2]; [10],100 to 1000 nM
same,IC50,SMN2; [11],100 to 1000 nM
CN(c1cnc(-c2cc(F)c(-c3cnn(C)c3)c3cn[nH]c23)nn1)[C@@H]1C[C@H]2CC[C@@H](C1)N2 [Compound 290],AC50,HTT [1]; [7],< 100 nM
same,IC50,HTT [1]; [8],< 100 nM
same,IC50,MYB [2]; [9],1000 to 10000 nM
same,AC50,MYB [2]; [7],100 to 1000 nM
same,IC50,MYB [2]; [10],1000 to 10000 nM
same,IC50,SMN2; [11],100 to 1000 nM
same,IC50,Target C [3]; [11],100 to 1000 nM
c1cnn(-c2ccc(-c3ccc(O[C@@H]4C[C@H]5CC[C@@H](C4)N5)nn3)c3cn[nH]c23)c1 [Compound 308],AC50,HTT [1]; [7],< 100 nM
same,IC50,HTT [1]; [8],< 100 nM
same,IC50,MYB [2]; [9],< 100 nM
same,AC50,MYB [2]; [7],< 100 nM
same,IC50,MYB [2]; [10],< 100 nM
same,IC50,SMN2; [11],< 100 nM
same,IC50,Target C [3]; [11],< 100 nM
CN(c1ccc(-c2ccc(-n3cccn3)c3[nH]ncc23)nn1)[C@@H]1C[C@H]2CC[C@@H](C1)N2 [Compound 409],AC50,HTT [1]; [7],< 100 nM
same,IC50,HTT [1]; [8],< 100 nM
same,IC50,MYB [2]; [9],100 to 1000 nM
same,AC50,MYB [2]; [7],100 to 1000 nM
same,IC50,MYB [2]; [10],100 to 1000 nM
same,IC50,SMN2; [11],< 100 nM
same,IC50,Target C [3]; [11],< 100 nM
C[C@@H]1C[C@H](N(C)c2ccc(-c3ccc(-c4cn[nH]c4)c(=O)[nH]3)nn2)CCN1 [Compound 901],IC50,MYB [2]; [12],> 10000 nM
same,IC50,MYB [4],> 10 µM
same,IC50,HTT [5],> 10 µM
same,IC50,Target C [6],> 10 µM
C[C@H]1C[C@@H](N(C)c2ccc(-c3ccc(-n4cccn4)c(=O)[nH]3)nn2)CCN1 [Compound 903],IC50,MYB [2]; [12],> 10000 nM
same,IC50,Target C [3]; [13],> 10000 nM
same,IC50,MYB [4],> 10 µM
same,IC50,HTT [5],> 10 µM
same,IC50,Target C [6],> 10 µM
COc1nc(-c2ccc(N(C)[C@@H]3CCN[C@H](C)C3)nn2)ccc1-c1cn[nH]c1 [Compound 909],IC50,"HTT [1]; gene panel, CJ qPCR, protocol of Example 142, read-out: HTT IC50 (decrease in CJ mRNA levels)",1000 to 10000 nM
same,IC50,MYB [2]; [12],1000 to 10000 nM
same,IC50,SMN2; [13],100 to 1000 nM
same,IC50,MYB [4],1 to 10 µM
same,IC50,HTT [5],1 to 10 µM
same,IC50,Target C [6],1 to 10 µM
